Laboratory results: ChEMBL document CHEMBL1201862, “PubChem BioAssay data set” (2004)
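Where inhibition never reached the appropriate level, the endpoint shown equals the highest concentration tested. Otherwise, values were interpolated linearly from a five-concentration, 48-hour dose response in 96-well plates. GI50 = concentration required for 50% inhibition of growth.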 Activity calls are given as the source filed them. Rule as the data show it: active = GI50 up to about 1.1 µM and inactive = higher.

Assays:
Assay in all cases: inhibition of tumour cell growth, NCI panel, 48 h
786-0 = system: 786-0
A498 = system: A498
A549 = system: A549
ACHN = system: ACHN
BT-549 = system: BT-549
CAKI-1 = system: CAKI-1
CCRF-CEM = system: CCRF-CEM
COLO 205 = system: COLO 205
EKVX = system: EKVX
HCC 2998 = system: HCC 2998
HCT-116 = system: HCT-116
HCT-15 = system: HCT-15
HL-60 = system: HL-60
HOP-62 = system: HOP-62
HOP-92 = system: HOP-92
HT-29 = system: HT-29
Hs-578T = system: Hs-578T
IGROV-1 = system: IGROV-1
K562 = system: K562
KM12 = system: KM12
LOX IMVI = system: LOX IMVI
M14 = system: M14
MCF7 = system: MCF7
MDA-MB-231 = system: MDA-MB-231
MDA-MB-435 = system: MDA-MB-435
MDA-N = system: MDA-N
MOLT-4 = system: MOLT-4
Malme-3M = system: Malme-3M
NCI-H226 = system: NCI-H226
NCI-H23 = system: NCI-H23
NCI-H460 = system: NCI-H460
NCI-H522 = system: NCI-H522
NCI/ADR-RES = system: NCI/ADR-RES
OVCAR-3 = system: OVCAR-3
OVCAR-4 = system: OVCAR-4
OVCAR-5 = system: OVCAR-5
OVCAR-8 = system: OVCAR-8
PC-3 = system: PC-3
RPMI-8226 = system: RPMI-8226
RXF 393 = system: RXF 393
SF-268 = system: SF-268
SF-295 = system: SF-295
SF-539 = system: SF-539
SK-MEL-28 = system: SK-MEL-28
SK-MEL-2 = system: SK-MEL-2
SK-MEL-5 = system: SK-MEL-5
SK-OV-3 = system: SK-OV-3
SN12C = system: SN12C
SNB-19 = system: SNB-19
SNB-75 = system: SNB-75
SR = system: SR
SW-620 = system: SW-620
T47D = system: T47D
TK-10 = system: TK-10
U-251 = system: U-251
UACC-257 = system: UACC-257
UACC-62 = system: UACC-62
UO-31 = system: UO-31
DU-145 = system: DU-145

With `O=C(O)c1cc2ccc3ccccc3c2oc1=O` the GI50 (786-0) was > 100 µM (inactive), the GI50 (A498) was 54.2 µM (inactive) and the GI50 (A549) was > 100 µM (inactive). The GI50 (ACHN) was > 100 µM (inactive), the GI50 (BT-549) was > 100 µM (inactive) and the GI50 (CAKI-1) was > 10 µM (inactive). The GI50 (CCRF-CEM) was > 100 µM (inactive), the GI50 (COLO 205) was > 100 µM (inactive) and the GI50 (EKVX) was 31.3 µM (inactive). For the same compound, the GI50 (HCC 2998) was > 100 µM (inactive), the GI50 (HCT-116) was > 100 µM (inactive) and the GI50 (HCT-15) was > 100 µM. The GI50 (HL-60) was > 100 µM (inactive), the GI50 (HOP-62) was > 100 µM (inactive) and the GI50 (HOP-92) was > 100 µM (inactive). The GI50 (HT-29) was > 100 µM (inactive), the GI50 (Hs-578T) was > 100 µM (inactive) and the GI50 (IGROV-1) was > 100 µM (inactive). For the same compound, the GI50 (K562) was > 100 µM (inactive), the GI50 (KM12) was > 100 µM (inactive) and the GI50 (LOX IMVI) was > 100 µM (inactive). For the same compound, the GI50 (M14) was > 100 µM (inactive), the GI50 (MCF7) was > 100 µM (inactive) and the GI50 (MDA-MB-231) was > 100 µM (inactive). The GI50 (MDA-MB-435) was > 100 µM (inactive), the GI50 (MDA-N) was > 100 µM (inactive) and the GI50 (MOLT-4) was > 100 µM (inactive). For the same compound, the GI50 (Malme-3M) was > 100 µM (inactive), the GI50 (NCI-H226) was > 100 µM (inactive) and the GI50 (NCI-H23) was > 100 µM (inactive). For the same compound, the GI50 (NCI-H460) was > 100 µM (inactive), the GI50 (NCI-H522) was > 100 µM (inactive) and the GI50 (NCI/ADR-RES) was > 100 µM (inactive). The GI50 (OVCAR-3) was > 100 µM (inactive), the GI50 (OVCAR-4) was > 100 µM (inactive) and the GI50 (OVCAR-5) was > 100 µM (inactive). For the same compound, the GI50 (OVCAR-8) was > 100 µM (inactive), the GI50 (PC-3) was > 100 µM (inactive) and the GI50 (RPMI-8226) was > 100 µM (inactive). For the same compound, the GI50 (RXF 393) was > 100 µM (inactive), the GI50 (SF-268) was > 100 µM (inactive) and the GI50 (SF-295) was > 100 µM (inactive). For the same compound, the GI50 (SF-539) was > 100 µM (inactive), the GI50 (SK-MEL-28) was > 100 µM (inactive) and the GI50 (SK-MEL-2) was > 100 µM (inactive). The GI50 (SK-MEL-5) was > 100 µM (inactive), the GI50 (SK-OV-3) was > 100 µM (inactive) and the GI50 (SN12C) was > 100 µM (inactive). The GI50 (SNB-19) was > 100 µM (inactive), the GI50 (SNB-75) was > 100 µM (inactive) and the GI50 (SR) was > 100 µM (inactive). The GI50 (SW-620) was > 100 µM (inactive), the GI50 (T47D) was > 100 µM (inactive) and the GI50 (TK-10) was > 100 µM (inactive). The GI50 (U-251) was > 100 µM (inactive), the GI50 (UACC-257) was > 100 µM (inactive) and the GI50 (UACC-62) was > 100 µM (inactive). The GI50 (UO-31) was > 100 µM (inactive).
`O=C1/C(=C\c2ccc(Cl)cc2)N=C(c2ccccc2)N1n1c(=O)cn[nH]c1=S` was tested, and the GI50 (786-0) was 18.4 µM (inactive), the GI50 (A498) was > 100 µM (inactive) and the GI50 (A549) was > 100 µM (inactive). For the same compound, the GI50 (ACHN) was > 100 µM (inactive), the GI50 (BT-549) was 28.5 µM (inactive) and the GI50 (CAKI-1) was 40.2 µM (inactive). For the same compound, the GI50 (CCRF-CEM) was 2.56 µM (inactive), the GI50 (COLO 205) was > 100 µM (inactive) and the GI50 (DU-145) was 19.8 µM (inactive). For the same compound, the GI50 (EKVX) was > 100 µM (inactive), the GI50 (HCC 2998) was 84.3 µM (inactive) and the GI50 (HCT-116) was 68.2 µM (inactive). For the same compound, the GI50 (HCT-15) was 21.5 µM, the GI50 (HL-60) was 18.2 µM (inactive) and the GI50 (HOP-62) was 52.2 µM (inactive). The GI50 (HT-29) was 37.7 µM (inactive), the GI50 (IGROV-1) was 18.5 µM (inactive) and the GI50 (K562) was 16.9 µM (inactive). For the same compound, the GI50 (KM12) was > 100 µM (inactive), the GI50 (LOX IMVI) was 27.8 µM (inactive) and the GI50 (M14) was > 100 µM (inactive). The GI50 (MCF7) was 18.4 µM (inactive), the GI50 (MDA-MB-435) was 30.5 µM (inactive) and the GI50 (MDA-N) was 52.6 µM (inactive). The GI50 (MOLT-4) was 18.7 µM (inactive), the GI50 (Malme-3M) was > 100 µM (inactive) and the GI50 (NCI-H23) was 20.3 µM (inactive). The GI50 (NCI-H460) was > 100 µM (inactive), the GI50 (NCI-H522) was 15.8 µM (inactive) and the GI50 (NCI/ADR-RES) was 45 µM (inactive). The GI50 (OVCAR-3) was 27.4 µM (inactive), the GI50 (OVCAR-4) was 23.6 µM (inactive) and the GI50 (OVCAR-5) was > 100 µM (inactive). The GI50 (OVCAR-8) was 21.8 µM (inactive), the GI50 (PC-3) was 39.7 µM (inactive) and the GI50 (RPMI-8226) was 18.4 µM (inactive). For the same compound, the GI50 (SF-295) was > 100 µM (inactive), the GI50 (SF-539) was > 100 µM (inactive) and the GI50 (SK-MEL-28) was > 100 µM (inactive). For the same compound, the GI50 (SK-MEL-2) was > 100 µM (inactive), the GI50 (SK-MEL-5) was 21.7 µM (inactive) and the GI50 (SK-OV-3) was > 100 µM (inactive). The GI50 (SNB-19) was 54.3 µM (inactive), the GI50 (SR) was 22.5 µM (inactive) and the GI50 (SW-620) was 18.1 µM (inactive). The GI50 (T47D) was 13.5 µM (inactive), the GI50 (U-251) was 19.8 µM (inactive) and the GI50 (UACC-257) was 29.5 µM (inactive). For the same compound, the GI50 (UACC-62) was 33.7 µM (inactive) and the GI50 (UO-31) was 60.4 µM (inactive).
`COC(=O)c1cc(NC(=O)c2cc(NC(=O)Cc3c[nH]c4ccccc34)cn2C)cn1C` was tested, and the GI50 (786-0) was 56.9 µM (inactive), the GI50 (A498) was 24 µM (inactive) and the GI50 (A549) was 29.4 µM (inactive). For the same compound, the GI50 (ACHN) was 35.7 µM (inactive), the GI50 (BT-549) was 37.3 µM (inactive) and the GI50 (CAKI-1) was 57.1 µM (inactive). For the same compound, the GI50 (CCRF-CEM) was 32.7 µM (inactive), the GI50 (COLO 205) was 24.2 µM (inactive) and the GI50 (DU-145) was > 100 µM (inactive). The GI50 (EKVX) was 22.2 µM (inactive), the GI50 (HCT-116) was 27.2 µM (inactive) and the GI50 (HCT-15) was 42.8 µM. For the same compound, the GI50 (HL-60) was 34.6 µM (inactive), the GI50 (HOP-62) was > 100 µM (inactive) and the GI50 (HT-29) was 22.2 µM (inactive). For the same compound, the GI50 (K562) was 44.4 µM (inactive), the GI50 (KM12) was 24.3 µM (inactive) and the GI50 (LOX IMVI) was 32 µM (inactive). The GI50 (M14) was 33 µM (inactive), the GI50 (MCF7) was 36.5 µM (inactive) and the GI50 (MDA-MB-231) was 25.9 µM (inactive). The GI50 (MDA-MB-435) was 30.3 µM (inactive), the GI50 (MDA-N) was 37.2 µM (inactive) and the GI50 (MOLT-4) was 30.7 µM (inactive). The GI50 (Malme-3M) was 21.1 µM (inactive), the GI50 (NCI-H226) was 30.8 µM (inactive) and the GI50 (NCI-H23) was 24.3 µM (inactive). The GI50 (NCI-H460) was 30.5 µM (inactive), the GI50 (NCI/ADR-RES) was > 100 µM (inactive) and the GI50 (OVCAR-3) was 41.9 µM (inactive). For the same compound, the GI50 (OVCAR-4) was 43.1 µM (inactive), the GI50 (OVCAR-5) was 39.3 µM (inactive) and the GI50 (OVCAR-8) was 39.4 µM (inactive). For the same compound, the GI50 (PC-3) was 19.1 µM (inactive), the GI50 (RPMI-8226) was 20.5 µM (inactive) and the GI50 (RXF 393) was 31.3 µM (inactive). For the same compound, the GI50 (SF-268) was 42.6 µM (inactive), the GI50 (SF-295) was 36.3 µM (inactive) and the GI50 (SF-539) was 56.4 µM (inactive). The GI50 (SK-MEL-28) was 35.9 µM (inactive), the GI50 (SK-MEL-2) was 19.6 µM (inactive) and the GI50 (SK-MEL-5) was 16 µM (inactive). The GI50 (SK-OV-3) was 40 µM (inactive), the GI50 (SN12C) was 33.4 µM (inactive) and the GI50 (SNB-19) was 21.8 µM (inactive). The GI50 (SNB-75) was 20.5 µM (inactive), the GI50 (SW-620) was 57.1 µM (inactive) and the GI50 (T47D) was > 100 µM (inactive). The GI50 (TK-10) was 31.5 µM (inactive), the GI50 (UACC-62) was 20.2 µM (inactive) and the GI50 (UO-31) was 23.5 µM (inactive).
